Here are results for six compounds from patent US20230241057A1, “COMPOUNDS FOR THE PREVENTION, TREATMENT AND DIAGNOSIS OF THROMBI” (INSERM (INSTITUT NATIONAL DE LA SANTÉ ET DE LA RECHERCHE …, priority 2020, published 2023).

The subject of assay [1] is extracellular chromatin (NETs). Nature of the assay: Extracellular chromatin (NETs) binding to coated nitinol disks, Sytox Green staining. Also on record: species or system human. The settings on record: for Chomatin binding (% of max): coated nitinol disks applied 3 minutes on nigericin-stimulated human neutrophils, mean±SEM, 6/coating; for Chromatin/Platelet binding ratio: ratio of chromatin binding to platelet binding (% of max). The text has this: (§1) Nitinol disks are left untouched (bare metal) or coated with the tested chromatin ligands following a polydopamine, DBCO-PEG4-amine and azide derivative ligand sequential dip-coating layering procedure.
Extracellular chromatin adhering to the disk surface was stained with the cell impermeant nuclear dye Sytox Green.
(§2) Each dot corresponds to the mean binding (% of max, mean±SEM) of chromatin (X-axis) and platelet (Y-axix) with the standard error bars parallel to the respective axis.
(§3) Different linkers were combined with piperaquine and the resulting azide derivatives were used for coating nitinol disks (N=6 for each compound), following the described 3-step dip-coating procedure. Platelet adhesion (left panel) was evaluated by analyzing the surface and intensity of the phalloidin staining (green fluorescence) after immersion of the disks (N^o=6/coating) for 10 min in blood withdrawn in PPAK (thrombin inhibitor providing a transient anticoagulation). The binding of extracellular chromatin was evaluated by applying for 3 minutes the disks on the bottom of wells in which fresh human neutrophils were stimulated with nigericin for 4 hours, to promote the formation of neutrophil extracellular traps (NETs). Extracellular chromatin was stained with the cell impermeant nuclear dye Sytox Green.

A further assay has as its system blood platelets. The assay is described as follows: Platelet adhesion to coated nitinol disks, phalloidin-AlexaFluor 488 staining. Format: cell-based. The settings on record: for Platelet binding (% of max): coated nitinol disks immersed 10 min in blood withdrawn in PPAK, mean±SEM, 6/coating.
From the text: as §1, §2, §3

In assay [2] the test system is thrombus material (DNA and proteins). The settings on record: coated nitinol disks vs bare metal; thrombus slice 5 minutes at 37° C. in human plasma; Hoechst 33342 / Evans Blue staining.
Method: Polydopamine (1 mg/ml in tris buffer, pH 8.5, 22±2 hours)
A fresh thrombus was prepared with human whole blood additioned with PMA 100 nM and ionomycin 1 μM to promote strong leukocyte activation leading to the release of extracellular chromatin within the thrombus. Slice of the same thrombus were layered onto coated and bare metal disks in the wells of a 48-well plate, covered with human plasma and incubated at 37° C. on an orbital shaker for 5 minutes. The thrombus slices were mechanically removed using tweezers, the disk washed in PBS and stained with a solution made of Hoechst 33342 (1 μg/ml, to stain DNA) and Evans Blue (3%, to stain proteins) in PBS for 5 minutes. […] The image analysis was performed using the Image J open software.
The mark [3] stands for this setting: coated disk compared to bare metal.

SMILES strings stand for the structures.

With `CCCCCOCCCCCN=[N+]=[N-]` [Pipe-2], in assay [1], the “Chomatin binding (% of max)” value is given as 57.5 7.05 % of max and the Chromatin/Platelet binding ratio came out at 3.59. Moreover, the “Platelet binding (% of max)” value in the assay with blood platelets is on record as 16 ± 5.78 % of max.

For the compound `[N-]=[N+]=NCCOCCOCCNC(=O)c1cc2cc(N(CCCl)CCCl)ccc2o1` [MBF, N-(2-(2-(2-azidoethoxy)ethoxy)ethyl)-5-(bis(2-chloroethyl)amino)benzofuran-2-carboxamide], the “Chromatin binding (example disk image, in words)” value in assay [1] (setting [3]) is reported as “high”. Also, in assay [1], the “Chomatin binding (% of max)” value is listed as 66.07 ± 13.21 % of max and the Chromatin/Platelet binding ratio came out at 2.85. In addition, in the assay with blood platelets (setting [3]), the “Platelet binding (example disk image, in words)” value was “low platelet binding”. In the assay on blood platelets, the “Platelet binding (% of max)” value is reported as 23.18 ± 4.05 % of max.

For the compound `Cn1cc(NC(=O)c2cc(NC(=O)c3cc(NC=O)cn3C)cn2C)cc1C(=O)NCCC(=N)N` [Distamycin, reference compound], in assay [1], the “Chomatin binding (% of max)” value is on record as 12.26 ± 4.14 % of max and the Chromatin/Platelet binding ratio is 0.99. Besides, the “Platelet binding (% of max)” value in the assay on blood platelets is 12.42 ± 1.72 % of max.

Take `O=C(O)c1cn(C2CC2)c2cc(N3CCNCC3)c(F)cc2c1=O` [Ciprofloxacin, reference compound]: the “Chomatin binding (% of max)” value in assay [1] is on record as 23.63 ± 9.59 % of max. Further, the “Platelet binding (% of max)” value with blood platelets is on record as 27.57 ± 3.22 % of max.

For the compound `[N-]=[N+]=NCCOCCOCCNC(=O)CCc1ccc(N(CCCl)CCCl)cc1` [PPM, N-(2-(2-(2-azidoethoxy)ethoxy)ethyl)-3-(4-(bis(2-chloroethyl)amino)phenyl)propanamide], in assay [1], the “Chomatin binding (% of max)” value is reported as 36.75 ± 5.78 % of max and the Chromatin/Platelet binding ratio is 0.75. In addition, in the assay with blood platelets, the “Platelet binding (% of max)” value is listed as 48.8 ± 5.59 % of max.

Take `CSc1ccc2c(c1)N(CCC1CCCCN1C)c1ccccc1S2` (centres unmarked) [thioridazine]: the “DNA and proteins captured from the thrombus (Integrated Density)” value in assay [2] is “capture more DNA and proteins”.
